Assay results from publication PMC12724174, “Biodegradation of the endocrine-disrupting compound bisphenol F by Sphingobium yanoikuyae DN12” (Applied and Environmental Microbiology, 2025).

Key:
BpfAB (BpfA1B1) = tested on: T1, BpfAB (BpfA1B1); experiment: HPLC of residual substrate; Michaelis-Menten nonlinear fit; type: biochemical, Sphingobium yanoikuyae; conditions: apparent; optimal pH 8.0 and 55°C; 0.1 mM FAD, 0.2 mM phenazine methosulfate in standard assay; BpfB mostly apo
T1 construct: gene bpfA1; bpfA1B1 co-expressed from pET-29a in E. coli BL21(DE3), N-terminal His6 on BpfA (MHHHHHHPLSVAE by primer), Ni-NTA; total 663 aa; BpfB mostly apo (little heme); C-terminus of BpfB VEPKP by primer; with Cytochrome c BpfB

BpfC (BpfC1) = tested on: T2, BpfC (BpfC1); experiment: as above; type: biochemical, Sphingobium yanoikuyae; conditions: apparent; optimal pH 8.5 and 40°C; 0.02 mM FAD, 0.4 mM nicotinamide adenine dinucleotide phosphate in standard assay; aerobic
T2 construct: full length, 402 aa (1,209 bp), C-terminal His6 (pET-29a), E. coli BL21(DE3), Ni-NTA; N-terminus MSGNDR and C-terminus FAESVQ-LEHHHHHH by primers

Compound | Km (BpfAB (BpfA1B1)) | Km (BpfC (BpfC1))
Oc1ccc(Cc2ccc(O)cc2)cc1 [BPF, Bisphenol F] | 19.3 ± 6.66 µM | –
O=C(c1ccc(O)cc1)c1ccc(O)cc1 [DHBP, 4,4'-dihydroxybenzophenone] | – | 21.3 ± 2.88 µM
